In US4174406A, “Terpenylaminoalkanol fish toxicants” (priority 1977, dated 1979):
Converted amounts (≈) assume the structure as drawn.

What was measured:
Largemouth buffalo = test: Outdoor plastic pool test (Table 3); type: in vivo, Ictibous cyprinellus; conditions: 96 hour, 50% formulation (hydrochloride salt)
Description: (§1) N-(2-hydroxyethyl) digeranylamine was tested as a selective fish toxicant in outdoor pools stocked with various fish species and lined with black plastic using 50% water soluble formulations (hydrochloride salt). The formulation was added to each of four pools of 4,000-liter capacity at concentrations of 0.10, 0.15, 0.20, and 0.30 mg/liter. Another pool containing the same number, size, and species of fish served as a control. The test water had algal blooms, a pH of about 8.5, and a total hardness of about 200 mg/liter as CaCo3. The temperature was cool enough (15°-16°C.) to permit the use of trout.
(§2) Fish were obtained from state and federal hatcheries and maintained prior to testing by a trained fish culturist. Fish of total length 2-5 cm were used in laboratory tests while for outdoor tests small fish (4-6 cm in length) and larger carp and buffalo (Ictiobus cyprinellus) were used.
(§3) In all tests 10 fish of each were exposed to selective concentrations of the toxicant. Mortalities were observed and recorded at 1,2 and 6 hours on the first day and once daily thereafter, during 96 hour exposure.
(§4) Outdoor pool tests were conducted using 50% formulation of the toxicant N-(2-hydroxyethyl) digeranylamine as indicated in Example 8. […] If selective control of white sucker and common carp is desired in an environment which includes rainbow trout, one should employ an effective concentration of toxicant which is at least as great as 0.05 mg/liter but less than 0.1 mg/liter. As a practical fishery practice in the northern United States and Canada, rainbow trout are not usually stocked in bodies of water containing the common carp species; the habitat conditions including water temperature and available oxygen of these species are usually quite different. Common carp and rainbow trout have quite different oxygen and temperature requirements and these differences generally preclude both species cohabitating under natural conditions. In this case the useful range to control common carp and white sucker can be much broader, i.e. 0.1 to 0.3 mg/liter.

Rainbow trout [1] = test: Outdoor plastic pool test (Table 3); type: in vivo, Salmo gairdneri; conditions: 96 hour; for % kill: 50% formulation (hydrochloride salt)
Description: as §1, §2, §3, §4

Asiade clam = test: Static bioassay in invertebrates (Table 2); type: in vivo, Corbicula sp.; conditions: tech, 17 C, limed spring water 22-36 mg/l hardness
Description: (§5) The effect of the various toxicants on common invertebrate species was determined in a static test conducted 17° C. The invertebrates tested were collected from natural populations or purchased from commercial suppliers. They were held in soft water in fiberglass tanks in the laboratory or in outdoor plastic swimming pools. Mortality was observed during holding, and only healthy organisms were used for the toxicity tests. At least 10 organisms of nine species were exposed to each concentration in static tests.

Snail (Pleurecera sp.) = test: Static bioassay in invertebrates (Table 2); type: in vivo; conditions: tech, 17 C, limed spring water 22-36 mg/l hardness
Description: as §5

Seed shrimp or ostracod = test: Static bioassay in invertebrates (Table 2); type: in vivo; conditions: tech, 17 C, limed spring water 22-36 mg/l hardness
Description: as §5

Rainbow trout [2] = test: Laboratory fish toxicity test (Table 1); type: in vivo, Salmo gairdneri; conditions: tech, 12 C, soft water
Description: as §2, §3
(§6) Laboratory tests were also conducted in soft water 12° C. wherein the toxicant was evaluated against fifteen species of fish including both cold and warm water varieties. In Table 1, the LC 50 toxicity values for N-(2-hydroxyethyl) digeranylamine is shown for various species. LC50 is defined as the amount (mg/liter) of toxicant required to kill 50 percent of the particular fish species at 95% confidence interval.

Walleye = test: Laboratory fish toxicity test (Table 1); type: in vivo, Stizostedion vitreum; conditions: tech, 12 C, soft water
Description: as §2, §3, §6

Coho salmon = test: Laboratory fish toxicity test (Table 1); type: in vivo, Oncorhynchus kisutch; conditions: tech, 12 C, soft water
Description: as §2, §3, §6

Bluegill [3] = test: Outdoor plastic pool test (Table 3); type: in vivo, Lepomis macrochirus; conditions: for % kill: 96 hour, 50% formulation (hydrochloride salt)
Description: as §1, §2, §3, §4

White sucker [4] = test: Laboratory fish toxicity test (Table 1); type: in vivo, Catostomus commersoni; conditions: tech, 12 C, soft water
Description: as §2, §3, §6

Fathead minnow = test: Laboratory fish toxicity test (Table 1); type: in vivo, Pimephales promelas; conditions: tech, 12 C, soft water
Description: as §2, §3, §6

Green sunfish = test: Laboratory fish toxicity test (Table 1); type: in vivo, Lepomis cyanellus; conditions: tech, 12 C, soft water
Description: as §2, §3, §6

White sucker [5] = test: Outdoor plastic pool test (Table 3); type: in vivo, Catostomus commersoni; conditions: for % kill: 96 hour, 50% formulation (hydrochloride salt); for survival (in words): white suckers
Description: as §1, §2, §3, §4

Carp = test: Laboratory fish toxicity test (Table 1); type: in vivo, Cyprinus carpio; conditions: tech, 12 C, soft water
Description: as §2, §3, §6

Backswimmer = test: Static bioassay in invertebrates (Table 2); type: in vivo, Notonecta sp.; conditions: tech, 17 C, soft reconstituted water 42 mg/l hardness
Description: as §5

bluegill [6] = test: Toxicity to bluegill in waters of different hardness; type: in vivo, bluegill (Lepomis macrochirus)
Description: The selective toxicant, N-(2-hydroxyethyl)digeranylamine was evaluated against bluegill in waters of hardness of 12, 44, 170, and 300 p.p.m., total hardness as CaCo3. […] In contrast the specific aminoalkanols of this invention are selective to carp (Caprinus carpio) and effective in waters of high pH.

Grass carp = test: Outdoor plastic pool test (Table 3); type: in vivo, Ctenopharyngodon idella; conditions: for % kill: 96 hour, 50% formulation (hydrochloride salt)
Description: as §1, §2, §3, §4

Structure (SMILES): CC(C)=CCC/C(C)=C/CN(C/C=C(\C)CCC=C(C)C)CCO [N-(2-hydroxyethyl) digeranylamine]
- % kill (Largemouth buffalo; 0.10 mg/l): 0%
- % kill (Largemouth buffalo; 0.15 mg/l): 20%
- % kill (Largemouth buffalo; 0.20 mg/l): 20%
- % kill (Largemouth buffalo; 0.30 mg/l): 100%
- % kill (Rainbow trout [1]; 0.10 mg/l): 100%
- % kill (Rainbow trout [1]; 0.15 mg/l): 100%
- % kill (Rainbow trout [1]; 0.20 mg/l): 100%
- % kill (Rainbow trout [1]; 0.30 mg/l): 100%
- kill (in words) (Rainbow trout [1]; above 0.10 mg/l, 50% formulation): completely eliminated at all concentrations above 0.10 mg/l
- LC50 (Asiade clam; 28 hours): 56.0 µg/mL (≈ 168 µM)
- LC50 (Asiade clam; 96 hours): 9.60 µg/mL (≈ 28.8 µM)
- LC50 (Snail (Pleurecera sp.); 28 hours): 10.3 µg/mL (≈ 30.9 µM)
- LC50 (Snail (Pleurecera sp.); 96 hours): 2.68 µg/mL (≈ 8.03 µM)
- LC50 (Seed shrimp or ostracod; 6 hours): 3 µg/mL (≈ 8.99 µM)
- LC50 (Seed shrimp or ostracod; 28 hours): 1 µg/mL (≈ 3 µM)
- LC50 (Seed shrimp or ostracod; 96 hours): 0.32 µg/mL (≈ 0.959 µM)
- LC50 (Rainbow trout [2]; 3 hours): 0.220 µg/mL (≈ 0.66 µM)
- LC50 (Rainbow trout [2]; 6 hours): 0.189 µg/mL (≈ 0.567 µM)
- LC50 (Rainbow trout [2]; 24 hours): 0.187 µg/mL (≈ 0.561 µM)
- LC50 (Rainbow trout [2]; 96 hours): 0.136 µg/mL (≈ 0.408 µM)
- LC50 (Walleye; 3 hours): 2.78 µg/mL (≈ 8.33 µM)
- LC50 (Walleye; 6 hours): 1.03 µg/mL (≈ 3.09 µM)
- LC50 (Walleye; 24 hours): 0.346 µg/mL (≈ 1.04 µM)
- LC50 (Walleye; 96 hours): 0.239 µg/mL (≈ 0.717 µM)
- LC50 (Coho salmon; 3 hours): 0.320 µg/mL (≈ 0.959 µM)
- LC50 (Coho salmon; 6 hours): 0.240 µg/mL (≈ 0.72 µM)
- LC50 (Coho salmon; 24 hours): 0.200 µg/mL (≈ 0.6 µM)
- LC50 (Coho salmon; 96 hours): 0.142 µg/mL (≈ 0.426 µM)
- % kill (Bluegill [3]; 0.10 mg/l): 0%
- % kill (Bluegill [3]; 0.15 mg/l): 0%
- % kill (Bluegill [3]; 0.20 mg/l): 0%
- % kill (Bluegill [3]; 0.30 mg/l): 0%
- survival (in words) (Bluegill [3]; bluegill, 0.3 mg/liter, 50% formulation): complete survival
- LC50 (White sucker [4]; 3 hours): 0.540 µg/mL (≈ 1.62 µM)
- LC50 (White sucker [4]; 6 hours): 0.136 µg/mL (≈ 0.408 µM)
- LC50 (White sucker [4]; 24 hours): 0.0690 µg/mL (≈ 0.207 µM)
- LC50 (Fathead minnow; 6 hours): 1.55 µg/mL (≈ 4.65 µM)
- LC50 (Fathead minnow; 24 hours): 0.560 µg/mL (≈ 1.68 µM)
- LC50 (Fathead minnow; 96 hours): 0.303 µg/mL (≈ 0.908 µM)
- LC50 (Green sunfish; 24 hours): 0.640 µg/mL (≈ 1.92 µM)
- LC50 (Green sunfish; 96 hours): 0.640 µg/mL (≈ 1.92 µM)
- % kill (White sucker [5]; 0.10 mg/l): 20%
- % kill (White sucker [5]; 0.15 mg/l): 70%
- % kill (White sucker [5]; 0.20 mg/l): 100%
- % kill (White sucker [5]; 0.30 mg/l): 100%
- survival (in words) (White sucker [5]; 0.2 mg/liter or higher): none survived
- survival (in words) (White sucker [5]; 0.10 and 0.15 mg/liter): Some white suckers and larger carp (19 cm) survived
- LC50 (Carp; 6 hours): 1.34 µg/mL (≈ 4.02 µM)
- LC50 (Carp; 24 hours): 0.0718 µg/mL (≈ 0.215 µM)
- LC50 (Carp; 96 hours, 5760 min): 0.050 µg/mL (≈ 0.15 µM)
- LC50 (Carp; 96 hours, listed as N-(2-hydroxyethyl) Digeranylamine, 5760 min): 0.0507 µg/mL (≈ 0.152 µM)
- LC50 (Backswimmer; 1 hour): 9.15 µg/mL (≈ 27.4 µM)
- LC50 (Backswimmer; 3 hour): 8.35 µg/mL (≈ 25 µM)
- LC50 (Backswimmer; 6 hours): 8.30 µg/mL (≈ 24.9 µM)
- LC50 (Backswimmer; 28 hours): 4.90 µg/mL (≈ 14.7 µM)
- LC50 (Backswimmer; 96 hours): 3.45 µg/mL (≈ 10.3 µM)
- 96-hour LC50 (bluegill [6]; total hardness 12 p.p.m. as CaCo3): 0.84 µg/mL
- 96-hour LC50 (bluegill [6]; total hardness 44 p.p.m. as CaCo3): 0.72 µg/mL
- 96-hour LC50 (bluegill [6]; total hardness 170 p.p.m. as CaCo3): 0.46 µg/mL
- 96-hour LC50 (bluegill [6]; total hardness 300 p.p.m. as CaCo3): 0.33 µg/mL
- % kill (Grass carp; 0.10 mg/l): 0%
- % kill (Grass carp; 0.15 mg/l): 0%
- % kill (Grass carp; 0.20 mg/l): 0%
- % kill (Grass carp; 0.30 mg/l): 0%
- survival (in words) (Grass carp; grass carp, 0.3 mg/liter, 50% formulation): complete survival
